Test: Solubility of carvedilol in Pharmasolve
Format: physicochemical
Conditions: solvent Pharmasolve (N-methyl-2-pyrrolidone)

With `COc1ccccc1OCCNCC(O)COc1cccc2[nH]c3ccccc3c12` (racemic) [carvedilol] the “solubility of carvedilol in Pharmasolve” value was 1.6 gram of drug per gram of pharmasolve.
